According to patent publication US9006487B2, “Amine-containing lipids and uses thereof” (Massachusetts Institute of Technology, priority 2005, dated 2015):
Values joined by “and” are separate entries in the source; they are usually repeats but may differ in a detail not shown here. Equal entries are not always repeated.

Tests used:
cos-7 cells = assay: DNA transfection: luciferase expression relative to Lipofectamine 2000; assay type: cell-based; conditions: for luciferase expression (second part of table, values relative to LIPO2000): 300 ng of DNA per well
Summary of the method: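 Lipid/DNA complexes, 300 ng luciferase DNA per well at 2.5-25 w/w lipid:DNA, were formed in sodium acetate/Optimem and added to overnight-seeded cos-7 cells. Luciferase was measured by Bright-Glo luminescence after 48 hours and quantified against an enzyme standard curve. Values are expressed as % of Lipofectamine 2000 at 2.5 w/w.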

[1] = DNA delivery: raw luciferase expression (relative light units) of best-transfecting lipids; assay type: cell-based; conditions: 300 ng of DNA per well
Procedure: Raw values for luciferase expression (relative lights units) of best-transfecting lipids at lipid/DNA (w/w) ratios listed. 300 ng of DNA was added per well.

[2] = 1st column, no head printed (2.5 w/w by the raw values)
[3] = 2nd column, no head printed (5 w/w by the raw values)
[4] = 3rd column, no head printed (10 w/w by the raw values)
[5] = 4th column, no head printed (15 w/w by the raw values)

Row | SMILES | luciferase expression (second part of table, values relative to LIPO2000) (cos-7 cells; lipid/DNA 2.5 w/w) | luciferase expression (second part of table, values relative to LIPO2000) (cos-7 cells; lipid/DNA 5 w/w) | luciferase expression (second part of table, values relative to LIPO2000) (cos-7 cells; lipid/DNA 10 w/w) | luciferase expression (second part of table, values relative to LIPO2000) (cos-7 cells; lipid/DNA 15 w/w) | Raw values for luciferase expression ([1]; lipid/DNA 10 w/w) [relative lights units] | Raw values for luciferase expression ([1]; lipid/DNA 15 w/w) [relative lights units] | luciferase expression, second set of columns (replicate set of data) (cos-7 cells; [2]) | luciferase expression, second set of columns (replicate set of data) (cos-7 cells; [3]) | luciferase expression, second set of columns (replicate set of data) (cos-7 cells; [4]) | luciferase expression, second set of columns (replicate set of data) (cos-7 cells; [5]) | Raw values for luciferase expression ([1]; lipid/DNA 5 w/w) | Raw values for luciferase expression ([1]; lipid/DNA 2.5 w/w) [relative lights units]
1 | CCCCCCCCCCCCCCNC(=O)CCN(C)CCN(C)CCC(=O)NCCCCCCCCCCCCCC [NF60] | 6.8 | 21.9 | 28.9 | 49.1 | 2401570 | 3739668 | – | – | – | – | – | –
2 | CCCCCCCCCCCCCCNC(=O)CCN(CC)CCN(CC)CCC(=O)NCCCCCCCCCCCCCC [NF61] | 63.9 | 67.7 | 7.0 | 2.9 | – | – | 5.2 | 38.9 | 8.6 | 1.1 | 3689556 relative lights units and 3053999 relative lights units | –
3 | CCCCCCCCCCCCCCNC(=O)CCN(CC)CCCN(CC)CCC(=O)NCCCCCCCCCCCCCC [NF64] | 5.7 | 41.9 | 0.3 | 0.1 | – | – | – | – | – | – | 2283250 relative lights units | 384317
4 | CCCCCCCCCCCCCCNC(=O)CCN(CCC(=O)NCCCCCCCCCCCCCC)CCN(CCO)CCO [NF86] | 56.7 | 53.3 | 4.5 | 2.3 | – | – | – | – | – | – | 4087285 relative lights units | 4798383
5 | CCCCCCCCCCCCCCNC(=O)CCN(CCCN(CCO)CCO)CCC(=O)NCCCCCCCCCCCCCC [NF87] | 46.1 | 44.8 | 0.3 | 0.0 | – | – | – | – | – | – | 3436007 relative lights units | 3904993
6 | CCCCCCCCCCCCCCNC(=O)CCN(C)CCN(CCC(=O)NCCCCCCCCCCCCCC)CCC(=O)NCCCCCCCCCCCCCC [NF95] | 131.6 | 141.8 | 100.5 | 33.9 | 1906488 | 918612 | 6.0 | 9.4 | 4.7 | 12.1 | 2082965 relative lights units and 3775212 relative lights units | –
7 | CCCCCCCCCCCCCCNC(=O)CCN(CCCN(CCC(=O)NCCCCCCCCCCCCCC)CCC(=O)NCCCCCCCCCCCCCC)CCC(=O)NCCCCCCCCCCCCCC [NF100] | 75.9 | 0.5 | 0.0 | 0.0 | – | – | – | – | – | – | 8015 relative lights units | 1061441
8 | CCCCCCCCCCCCCCNC(=O)CCN(CCO)CCN(CCO)CCC(=O)NCCCCCCCCCCCCCC [NF103] | 183.1 | 23.6 | 0.0 | 0.0 | 2886271 | 772518 | 66.2 | 51.3 | 0.6 | 0.0 | – | –
9 | CCCCCCCCCCCCCCNC(=O)CCN(CCO)CCN(CCC(=O)NCCCCCCCCCCCCCC)CCC(=O)NCCCCCCCCCCCCCC [NF109] | 205.2 | 46.2 | 1.7 | 0.0 | 1151621 | 108854 | 74.5 | 22.5 | 3.9 | 1.6 | – | –
10 | CCCCCCCCCCCCCCCCNC(=O)CCN(CCO)CCN(CCO)CCC(=O)NCCCCCCCCCCCCCCCC [NP103] | 83.0 | 2.8 | 0.0 | 1.5 | – | – | 2.1 | 2.3 | 3.8 | 1.4 | 308844 relative lights units | 8798627
